Measured values reported in BigSolDB 2.1.

O=C(O)CNC(=O)C(=O)NCC(=O)O
solubility (mole fraction)
Conditions | 293.15 K | 298.15 K | 303.15 K | 308.15 K | 313.15 K | 318.15 K | 323.15 K | 328.15 K | 333.15 K
in DMF | 0.0292 | 0.0401 | 0.0519 | 0.0629 | 0.0732 | 0.082 | 0.0879 | 0.0909 | 0.0923
in DMSO | 0.0675 | 0.0736 | 0.0807 | 0.0879 | 0.0963 | 0.105 | 0.114 | 0.124 | 0.136
in THF | 3.5e-06 | 1.41e-05 | 4.17e-05 | 9.96e-05 | 0.000203 | 0.000354 | 0.000527 | 0.000715 | 0.000892
in acetonitrile | 1.6e-06 | 3.2e-06 | 5.6e-06 | 9.2e-06 | 1.41e-05 | 2.01e-05 | 2.73e-05 | 3.62e-05 | 4.71e-05
in ethanol | 2.08e-05 | 3.75e-05 | 6.27e-05 | 0.000104 | 0.000155 | 0.000216 | 0.00029 | 0.000382 | 0.0005
in ethyl acetate | 4.3e-06 | 6e-06 | 7.8e-06 | 1.04e-05 | 1.38e-05 | 1.81e-05 | 2.24e-05 | 2.76e-05 | 3.37e-05
in isopropanol | 7.7e-06 | 1.47e-05 | 2.59e-05 | 4.71e-05 | 7.77e-05 | 0.000118 | 0.000174 | 0.000246 | 0.000355
in methanol | 0.000159 | 0.000222 | 0.000303 | 0.000409 | 0.000527 | 0.000663 | 0.000816 | 0.000997 | 0.00121
in n-butanol | 2.9e-06 | 5.3e-06 | 1e-05 | 1.77e-05 | 3.06e-05 | 5.12e-05 | 7.95e-05 | 0.00012 | 0.00019
in n-propanol | 5.9e-06 | 8.2e-06 | 1.3e-05 | 2.06e-05 | 3.41e-05 | 5.83e-05 | 0.000104 | 0.000198 | 0.000355
in water | 0.000127 | 0.000183 | 0.000267 | 0.000362 | 0.00048 | 0.000634 | 0.000816 | 0.00105 | 0.00136
